From ChEMBL document CHEMBL1122262, “Quantitative structure-activity relationships employing independent quantum chemical indices” (1983) come the findings set out here.

For one test, the species on record is Mus musculus. In words: Logarithm of effective dose evaluated using the foot-shock test in mice. The format is functional.
Settings: not given
With `CN1C(=O)CN=C(c2ccccc2F)c2ccccc21` [RO-054520], the “Log ED50” value turned out to be 0.83 mM kg-1.
Same read-out and setting: the value for `N#Cc1ccc2c(c1)C(c1ccccc1)=NCC(=O)N2` was 0.81 mM kg-1; that for `CN1C(=O)CN=C(c2ccccc2)c2cc([N+](=O)[O-])ccc21` [NIMETAZEPAM] was 2.07 mM kg-1.
The same measure, in the same setting: the value for `O=C1CN=C(c2ccccc2)c2cc(C(F)(F)F)ccc2N1` [RO-052904] was 1.48 mM kg-1; that for `O=C1CN=C(c2ccccc2)c2cc([N+](=O)[O-])ccc2N1` [NITRAZEPAM] was 1.75 mM kg-1; that for `CN1C(=O)CN=C(c2ccccc2Cl)c2cc([N+](=O)[O-])ccc21` [RO-054082] was 2.12 mM kg-1.
For the compound `O=C1CN=C(c2ccccc2)c2ccccc2N1` [RO-052921], the “Log ED50” value is reported as 0.37 mM kg-1.
On to `CN1C(=O)CN=C(c2ccccc2Cl)c2cc(Cl)ccc21`, for which the “Log ED50” value is on record as 1.5 mM kg-1.
Still for that read-out and setting: the value for `CN1C(=O)CN=C(c2ccccc2F)c2cc([N+](=O)[O-])ccc21` [FLUNITRAZEPAM] was 2.59 mM kg-1.
For the compound `CN(C)c1ccc2c(c1)C(c1ccccc1Cl)=NCC(=O)N2C`, the “Log ED50” value is 0.61 mM kg-1.
For `CSc1ccc2c(c1)C(c1ccccc1)=NCC(=O)N2C`, the “Log ED50” value was 0.87 mM kg-1.
As to `CSc1ccc2c(c1)C(c1ccccc1)=NCC(=O)N2`, the “Log ED50” value is given as 1.15 mM kg-1.
On to `CN(C)c1ccc2c(c1)C(c1ccccc1)=NCC(=O)N2C`, for which the “Log ED50” value amounted to 0.86 mM kg-1.
Still for that read-out and setting: the value for `O=C1CN=C(c2ccccc2)c2cc(F)ccc2N1` [RO-053061] was 0.4 mM kg-1; that for `CN1C(=O)CN=C(c2ccccc2C(F)(F)F)c2cc([N+](=O)[O-])ccc21` was 1.86 mM kg-1.
For `CN1C(=O)CN=C(c2ccccc2)c2cc(Cl)ccc21` [DIAZEPAM], the “Log ED50” value is given as 1.45 mM kg-1.
Still for that read-out and setting: the value for `CN1C(=O)CN=C(c2ccccc2F)c2cc(Cl)ccc21` [FLUDIAZEPAM] was 1.78 mM kg-1.
Take `CN1C(=O)CN=C(c2ccccc2)c2cc(C#N)ccc21`: the “Log ED50” value was 1.74 mM kg-1.

For a further test, the system named is Escherichia coli. In words: Logarithm of the inhibitory rate constant against Escherichia coli. The format is functional.
Settings: not given
For `Cc1c2c(c(O)c3c(O)cccc13)C(=O)C1C(O)=C(C(N)=O)C(=O)[C@@H](N(C)C)[C@@H]1C2` (some centres undefined), the Log rate constant is given as 1.19 M-1 s-1.
On the same count and under the same terms, the value for `CN(C)[C@@H]1C(=O)C(C(N)=O)=C(O)[C@@]2(O)C(=O)C3=C(O)c4c(O)ccc(N)c4CC3C[C@@H]12` (some centres undefined) was 2.26 M-1 s-1; that for `CN(C)[C@@H]1C(=O)C(C(N)=O)=C(O)[C@@]2(O)C(=O)C3=C(O)c4c(ccc([N+](=O)[O-])c4O)CC3C[C@@H]12` (some centres undefined) was 1.65 M-1 s-1; that for `CN(C)[C@@H]1C(=O)C(C(N)=O)=C(O)C2C(O)C3=C(C[C@H]21)[C@@](C)(O)c1c(Cl)ccc(O)c1C3=O` (some centres undefined) was -0.47 M-1 s-1.
On the same count and under the same terms, the value for `CN(C)[C@@H]1C(O)=C(C(N)=O)C(=O)[C@@]2(O)C(O)=C3C(=O)c4c(O)cccc4C[C@H]3C[C@@H]12` [SANCYCLINE] was 1.98 M-1 s-1.
`CN(C)[C@@H]1C(=O)C(C(N)=O)=C(O)[C@@]2(O)C(O)=C3C(=O)c4c(O)ccc(Cl)c4[C@](C)(O)C3C[C@@H]12` (some centres undefined): the Log rate constant is recorded as 2.6 M-1 s-1.
As for `CN(C)[C@@H]1C(=O)C(C(N)=O)=C(O)[C@@]2(O)C(=O)C3=C(O)c4c(O)ccc([N+](=O)[O-])c4CC3C[C@@H]12` (some centres undefined), the Log rate constant is listed as 2.87 M-1 s-1.
As to `CN(C)[C@@H]1C(=O)C(C(N)=O)=C(O)[C@@]2(O)C(=O)C3=C(O)c4c(O)ccc(Br)c4CC3C[C@@H]12` (some centres undefined), the Log rate constant is listed as 1.71 M-1 s-1.
`CN(C)[C@@H]1C(=O)C(C(N)=O)=C(O)[C@@]2(O)C(=O)C3=C(O)c4c(ccc(N)c4O)CC3C[C@@H]12` (some centres undefined): the Log rate constant is 2.16 M-1 s-1.
For the compound `CN(C)[C@@H]1C(=O)C(C(N)=O)=C(O)C2C(=O)C3=C(O)c4c(O)cccc4CC3C[C@H]21` (some centres undefined), the Log rate constant is recorded as 0.41 M-1 s-1.
On to `CN(C)[C@@H]1C(=O)C(C(N)=O)=C(O)[C@@]2(O)C(O)=C3C(=O)c4c(O)cccc4[C@](C)(O)C3C(=O)[C@@H]12` (some centres undefined), for which the Log rate constant is reported as 2.41 M-1 s-1.
Same read-out and setting: the value for `CN(C)[C@@H]1C(=O)C(C(N)=O)=C(O)[C@@]2(O)C(=O)C3=C(O)c4c(O)ccc(Cl)c4C(O)C3C[C@@H]12` (some centres undefined) was 2.71 M-1 s-1; that for `CN(C)[C@@H]1C(=O)C(C(N)=O)=C(O)[C@@]2(O)C(O)=C3C(=O)c4c(O)cccc4[C@](C)(O)C3C[C@@H]12` (some centres undefined) was 2.43 M-1 s-1.
`CN(C)c1ccc2c(c1O)C(O)=C1C(=O)[C@]3(O)C(O)=C(C(N)=O)C(=O)[C@@H](N(C)C)[C@@H]3CC1C2` (some centres undefined): the Log rate constant was 1.37 M-1 s-1.

The next test concerns the target T1, Phenylethanolamine N-methyltransferase (Homo sapiens) (UniProt P11086).
T1 sequence (whole entry): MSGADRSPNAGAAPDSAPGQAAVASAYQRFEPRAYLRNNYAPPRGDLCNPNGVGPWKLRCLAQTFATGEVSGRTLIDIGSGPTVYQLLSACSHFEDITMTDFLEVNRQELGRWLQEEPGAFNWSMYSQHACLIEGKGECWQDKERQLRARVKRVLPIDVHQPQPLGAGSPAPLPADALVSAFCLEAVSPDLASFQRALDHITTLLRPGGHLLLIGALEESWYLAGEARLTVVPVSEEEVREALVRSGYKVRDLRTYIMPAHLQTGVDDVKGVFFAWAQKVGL
As to conditions: Oryctolagus cuniculus.
Description: Inhibition of phenylethanolamine N-methyltransferase(PNMT)activity
In the case of `NCc1cccc(Cl)c1`, the pI50 was determined as 5.07.
Regarding `NCc1ccccc1C(F)(F)F`, the pI50 is 4.64.
For the compound `NCc1ccc(C(F)(F)F)cc1`, the pI50 was determined as 5.2.
Same read-out and setting: the value for `Cc1ccccc1CN` was 4.17; that for `NCc1ccccc1F` was 3.87; that for `NCc1cc(Cl)ccc1Cl` was 4.82.
`Cc1cccc(CN)c1` came in with a pI50 of 3.82.
In the case of `Cc1ccc(CN)cc1`, the pI50 is 3.16.
For the compound `Cc1cccc(CN)c1C`, the pI50 worked out at 4.24.
On the same count and under the same terms, the value for `NCc1ccc(Cl)cc1Cl` was 4.68.
Same read-out and setting: the value for `NCc1cccc(C(F)(F)F)c1` was 5.64; that for `NCc1cccc(F)c1` was 4.
